Test results as given in patent US12697289B2, “Organic ricinoleate salts as deodorizing agents” (COLONIAL CHEMICAL, INC., priority 2022, dated 2026).

Assay: Deodorization evaluation with GASTEC gas detector tubes (24 hour acetic acid deodorization study)
Settings: FIG. 1; GASTEC Detector Tube method; 24 hour equilibration; comparison with industry standard Cola®Quat SME
Excerpt: Deodorization Evaluations with GASTEC Gas Detector Tubes.
The Gas Sampling Pump Kit (GV-100S) and Gas detection tubes are manufactured by GasTec International and purchased through New Star Environmental. The pump provided in the gas sampling pump kit provides a precise vacuum on the tubes and therefore a specific volume of gas. Tubes are pre-calibrated for specific molecules, have a ppm scale on the tube, and show a color change when reacting to the target odor causing molecule. There may be corrections for temperature, humidity, or specific target molecules.
Our exemplary, general method was as follows: • 1. […] Prepare the odorant solution for the experiment. • The concentration will need to be workshopped for each odorant molecule to give an appropriate “untreated” ppm reading • 5. […]
Additionally, the method attempts to control the volume of odorant solution, volume of deodorant solution, total liquid volume, surface area of liquid, volume of headspace, and equilibration time. Ambient temperature and humidity are recorded at the start of equilibration and at the time of measurement. […] The temperature used if correction is necessary is the temperature recorded at measurement. The humidity used if correction is necessary is the humidity recorded before equilibration as this should be the main component of the humidity variations between experiments. […]

| Substance | reducing odor vapors from acetic acid, compared to Cola®Quat SME standard |
| --- | --- |
| Soyamidopropyl Morpholine Ricinoleate | compare favorably |
| soyamidopropyl dimethylamine ricinoleate | compare favorably |
